Assay results: patent publication US6710074B2, “Compound having antimalarial activity” (Japan Science and Technology Corporation, priority 2000, dated 2004)
Like-named read-outs stand apart in the source and are kept apart here.

Legend:
[1] = tested on: P. falciparum; test: Growth inhibition test of P. falciparum; assay type: cell-based, Plasmodium falciparum; details: for Chemotherapeutic coefficient IC50/EC50: IC50 of mouse FM3A cells / EC50 of P. falciparum, index of selective toxicity; for EC50: Plasmodium falciparum
Protocol: P. Falciparum FCR-3 strain (ATCC30932) and P. Falciparum Honduras-i strain (ATCC30935), both of which are Plasmodium falciparum, were used as test malaria parasites for measuring antimalarial activity. A filter-sterilized RPMI1640 medium was adjusted to be pH 7.4 and added with human serum such that the serum made up 10% of the medium, and used as a test medium. The above-mentioned P. falciparum were cultured in O2at a concentration of 5%, CO2 at a concentration of 5% and N2 at a concentration of 90%, at a temperature of 36.5° C. Hematocrit value (ratio of volume of erythrocytes in erythrocyte suspension) used was adjusted to be 5%. Initial infection rate of P. falciparum at the beginning of culture was adjusted to be 0.1%. A 24-well plate was used for culture and a medium was replaced everyday, and cultures were transferred at infection rate of 4%. A thin-layer smear was constructed and subjected to Giemsa staining which had been originally developed for malarial test, or Diff-Qick staining, and followed by measurement under a microscope (oil immersion, 1000×), and then infection rate of P. falciparum was calculated according to a formula mentioned below. [formula]
Cultured erythrocytes infected with P. falciparum were gathered by centrifugation and washed with a medium containing serum, then noninfected erythrocytes were added, and a culture liquid for P. falciparum at initial infection rate of 0.3% was prepared. Hematocrit value in this case was adjusted to be 3%. The compound according to the present invention used for a test and represented by the formula (II) and […] of positive control drug (quinine, artemisinin, artesunate, mefloquine) were dissolved into sterilized water, N,N-dimethylformamide (DMF) or dimethylsulfoxide (DMSO), and a sample solution at prescribed concentration was prepared. 5 to 10 μl of the sample solution was added to each well of a 24-well plate. The sample solution was duplicated or triplicated. For control, sterilized water, DMF or DMSO was added by 10 μl per well. Next, the above-mentioned culture liquid for P. falciparum prepared to be at initial infection rate of 0.3% was added by 990 to 995 μl each, and uniformly suspended in media by pipetting gently. After cultured for 72 hours in a CO2—O2—N2 (5%, 5%, 90%) incubator, a thin-layer smear was constructed for each well of the culture plate, Giemsa staining or Diff-Qick staining was conducted, followed by measurement under a microscope (oil immersion, 1000×), and then infection rates of P. falciparum in a group supplemented with a test liquid and in controls were calculated. The growth inhibition rate was calculated according to a formula mentioned below based on the infection rate of P. falciparum as calculated above, and 50% growth inhibitory concentration (EC50) was calculated. [formula] […]
a: initial infection rate b: infection rate of a sample solution after 72 hours c: infection rate of a control after 72 hours
Antimalarial activity of a sample was evaluated based on EC50 and IC50 values of the sample of P. falciparum and mouse FM3A cells. Chemotherapeutic coefficient used as an index of selective toxicity against P falciparum was calculated by a formula mentioned below and drug efficacy was assessed. [formula]

[2] = tested on: mouse FM3A cells; test: Growth inhibition test of mouse FM3A cells; assay type: cell-based; details: for IC50: read-out: 50% growth inhibitory concentration IC50
Protocol: An F28-7 strain, a wild-type strain of mouse breast cancer-derived FM3A cells was used. Immobilized fetal bovine serum was added to an ES medium such that the serum made up 2% of the medium, and culture was conducted in CO2 at a concentration of 5%, and at 37° C. Doubling time of the F28-7 strain of FM3A cells under this condition was about 12 hours. Cells which had been precultured and entered to logarithmic growth phase were diluted to be 5×10^4 cells/ml in the medium. The same sample solution as in the above-mentioned Example 2-2 was used. 5 to 10 μl of the sample solution was added to each well of a 24-well plate (when medium and the like were added, the final concentration became 1×10^−4˜1×10^−5 M). The sample solution was duplicated or triplicated, and wells added with 10 μl of sterilized water, DMF or DMSO were prepared at the same time as controls. Next, a prepared suspension of cultured cells was added by 990 to 995 μl each, and uniformly suspended in media by pipetting gently. After cultured for 48 hours, the number of cells in each well was counted by a cell counter (CC-108; Toa. Medical Electrics), and growth rate was calculated by a formula mentioned below and 50% growth inhibitory rate (IC50) was calculated. The cell proliferation inhibiting activity was calculated according to the number of cells in wells supplemented with the sample solution and in controls. […] on this, cell toxicity of the sample was evaluated. [formula]
A: the number of cells at the beginning
B: the number of cells in a control after 2 days
C: the number of cells 2 days after supplementation of a sample

[3] = Erythrocyte, P. falciparum in human erythrocytes, cultured for 72 hours, infection rate by smear staining, read-out: 50% growth inhibitory concentration EC50
[4] = F28-7 strain of mouse breast cancer-derived FM3A cells, cultured for 48 hours, cell count

| EC50 [1, 3] [nM] | EC50 ([1]; read-out: inhibits the growth of drug-resistant P. falciparum at a mol concentration of) [nM] | SMILES | Chemotherapeutic coefficient IC50/EC50 [1] | IC50 [2, 4] [nM] | selective toxicity against P. falciparum compared with that against mouse FA3A cells ([1]; P. falciparum versus mouse FA3A cells) | growth ([2]; mouse FM3A cells, printed below the IC50 cell 2.4 × 10^−5 M) | EC50 ([1]; Erythrocyte, 72 h, read-out: 50% growth inhibitory concentration EC50) [nM] | IC50 ([2]; Mus musculus, FM3A, 48 h) [nM] |
| --- | --- | --- | --- | --- | --- | --- | --- | --- |
| 7.9 |  | C[C@@H]1CC[C@H]2[C@@H](C)C(=O)O[C@@H]3O[C@@]4(C)CC[C@@H]1[C@]32OO4 [Artemisinin, artemisinin] | 1,300 | 10000 |  |  |  |  |
| 39 | 39 | COC(=O)C(C)C1CCC(=O)C2CCC3(C)OOC21C(O)O3 (stereo not drawn) [Compound of the present invention, 12-hidroxy-2-(1-methoxycarbonylethyl)-5-oxo-10,11,13-trioxatricyclo[7.2.0.0^1,6]tridecane] | >1,000 | ≥ 24000 | more than 1,000 times | (78% growth) |  |  |
| 32 |  | OC(c1cc(C(F)(F)F)nc2c(C(F)(F)F)cccc12)C1CCCCN1 (stereo not drawn) [Mefloquine, mefloquine] | 90 | 2900 |  |  |  |  |
|  |  | C[C@H]1[C@H](OC(=O)CCC(=O)O)O[C@@H]2O[C@@]3(C)CC[C@H]4[C@H](C)CC[C@@H]1[C@@]24OO3 [Artesunate, artesunate] | 180 |  |  |  | 17 | 3000 |

| SMILES | EC50 [1, 3] [nM] | EC50 ([1]; read-out: inhibits the growth of drug-resistant P. falciparum at a mol concentration of) [nM] | Chemotherapeutic coefficient IC50/EC50 [1] | IC50 [2, 4] [nM] | selective toxicity against P. falciparum compared with that against mouse FA3A cells ([1]; P. falciparum versus mouse FA3A cells) | growth ([2]; mouse FM3A cells, printed below the IC50 cell 2.4 × 10^−5 M) | EC50 ([1]; Erythrocyte, 72 h, read-out: 50% growth inhibitory concentration EC50) [nM] | IC50 ([2]; Mus musculus, FM3A, 48 h) [nM] |
| --- | --- | --- | --- | --- | --- | --- | --- | --- |
| C=C[C@H]1C[N@@]2CC[C@H]1C[C@H]2[C@H](O)c1ccnc2ccc(OC)cc12 [Quinine, quinine] | 110 |  | 910 | 100000 |  |  |  |  |
